Assay results from patent US20070128124A1 (published 2007).
Where two headings read alike, the source gives them in different places.

How the values were obtained:
MTB strain H37Rv [1] = format: cell-based, Mycobacterium tuberculosis
MTB strain H37Rv [2] = format: cell-based, Mycobacterium tuberculosis; remark: listed apart in the source
MTB strain H37Rv [3] = format: cell-based, Mycobacterium tuberculosis; remark: listed apart in the source
[4] = renal and ototoxicity, parenteral use; cited from earlier work
MTB = settings: against MTB; cited from earlier work
[5] = cited from earlier work
MTB strain H37Rv [6] = tested on: MTB strain H37Rv; parameters: species or system C57/BL6 mice; settings: mouse, in vivo
[7] = cited from earlier work; remark: listed apart in the source
[8] = tested on: tuberculosis bacilli in the lungs; assay: Chronic murine infection model, efficacy versus duration of infection; format: in vivo, mouse
[9] = 10 times MIC, after 18-24 hours of incubation, stationary phase

Compound	reduction of CFUs (MTB strain H37Rv [1])	RLU reduction, log phase growth (MTB strain H37Rv [2])	decrease in RLU from untreated cultures at peak efficacy (MTB strain H37Rv [2])	efficacy compared with isoniazid and rifampicin (MTB strain H37Rv [2])	RLU reduction, stationary phase (MTB strain H37Rv [3]; [9])	reduction in efficacy from log phase cultures (MTB strain H37Rv [3]; stationary versus log phase, RLU at 24 hrs)	patients in whom toxicities occur [4]	minimum inhibitory concentration (MIC) (MTB)	solubility in water [5]	reduction in lung CFU, aerosol treated group (MTB strain H37Rv [6])	reduction in lung CFU, subcutaneous administered group (MTB strain H37Rv [6]; sc)	maximum serum concentration (Cmax) ([7]; human, reached two hours after intramuscular injection)	oral absorption ([7]; oral)	RLU reduction, stationary phase (MTB strain H37Rv [3])	time of peak efficacy (RLU endpoint) (MTB strain H37Rv [2])	time at which an effect begins (MTB strain H37Rv [3])	reduction of bacillary load in the lungs ([8]; 13 weeks post infection)	reduction of lung CFU ([8]; two weeks post infection)
Capreomycin	2.5 logs	approximately 2 logs	3.5 log	superior to that of isoniazid and is as efficacious as rifampicin	approximately 2 logs	~15%	up to 10 % of patients	2.5 µg/mL	soluble in water	~2.5 logs	1 log	25000 ng/mL	quite poor					
CO[C@H]1/C=C/O[C@@]2(C)Oc3c(C)c(O)c4c(O)c(c(/C=N/N5CCN(C)CC5)c(O)c4c3C2=O)NC(=O)/C(C)=C\C=C\[C@H](C)[C@H](O)[C@@H](C)[C@@H](O)[C@@H](C)[C@H](OC(C)=O)[C@@H]1C [rifampicin]	0.5 logs	2.25 logs	3.5 log											0.3 logs				
NNC(=O)c1ccncc1 [isoniazid]	no effect		~1.5 log		no significant effect										72 h	48 h	0.5 logs	2 logs
